Target: T1, mutant EGFR (L858R) (Homo sapiens, UniProt P00533, L858R/T790M)
T1 construct: endogenous in cells; host or cells: NCI-H1975
Experiment: Assay 8 - Degradation of mutant EGFR by immunoblot (NCI-H1975 cells)
Format: cell-based
Settings: after 24 h treatment with 1000 nM
Procedure: 1.8 Assay 8—Degradation of Mutant EGFR by Immunoblot.
NCI-H1975 (1.5×10^5) cells were seeded in 12-well plates (1 mL medium) overnight prior to 24 h treatment with test compounds at the desired concentration (DMSO final concentration 0.1%). After 24 h incubation, cells were washed with PBS and lysed with RIPA buffer (Sigma) supplemented with 1× protease inhibitor cocktail (Roche) and 1 U/mL Benzonase (Merck). Lysates were clarified by centrifugation (17,000×g, 20 min, 4° C.) and the total protein content of the supernatant was quantified using a BCA assay. Samples were prepared using equal amounts of total protein and LDS sample buffer (Invitrogen). […] Blots were visualised using a Bio-Rad ChemiDoc MP Imaging System, and band quantification was performed using Image Studio software (LiCor). […] Degradation data was plotted and analysed using Prism (Graphpad, version 8).
The degradation of target protein mutant EGFR (L858R) was detected according to the procedure outlined in assay 8 for the compound A67.

T1 sequence (P00533 25-1210 T790M/L858R): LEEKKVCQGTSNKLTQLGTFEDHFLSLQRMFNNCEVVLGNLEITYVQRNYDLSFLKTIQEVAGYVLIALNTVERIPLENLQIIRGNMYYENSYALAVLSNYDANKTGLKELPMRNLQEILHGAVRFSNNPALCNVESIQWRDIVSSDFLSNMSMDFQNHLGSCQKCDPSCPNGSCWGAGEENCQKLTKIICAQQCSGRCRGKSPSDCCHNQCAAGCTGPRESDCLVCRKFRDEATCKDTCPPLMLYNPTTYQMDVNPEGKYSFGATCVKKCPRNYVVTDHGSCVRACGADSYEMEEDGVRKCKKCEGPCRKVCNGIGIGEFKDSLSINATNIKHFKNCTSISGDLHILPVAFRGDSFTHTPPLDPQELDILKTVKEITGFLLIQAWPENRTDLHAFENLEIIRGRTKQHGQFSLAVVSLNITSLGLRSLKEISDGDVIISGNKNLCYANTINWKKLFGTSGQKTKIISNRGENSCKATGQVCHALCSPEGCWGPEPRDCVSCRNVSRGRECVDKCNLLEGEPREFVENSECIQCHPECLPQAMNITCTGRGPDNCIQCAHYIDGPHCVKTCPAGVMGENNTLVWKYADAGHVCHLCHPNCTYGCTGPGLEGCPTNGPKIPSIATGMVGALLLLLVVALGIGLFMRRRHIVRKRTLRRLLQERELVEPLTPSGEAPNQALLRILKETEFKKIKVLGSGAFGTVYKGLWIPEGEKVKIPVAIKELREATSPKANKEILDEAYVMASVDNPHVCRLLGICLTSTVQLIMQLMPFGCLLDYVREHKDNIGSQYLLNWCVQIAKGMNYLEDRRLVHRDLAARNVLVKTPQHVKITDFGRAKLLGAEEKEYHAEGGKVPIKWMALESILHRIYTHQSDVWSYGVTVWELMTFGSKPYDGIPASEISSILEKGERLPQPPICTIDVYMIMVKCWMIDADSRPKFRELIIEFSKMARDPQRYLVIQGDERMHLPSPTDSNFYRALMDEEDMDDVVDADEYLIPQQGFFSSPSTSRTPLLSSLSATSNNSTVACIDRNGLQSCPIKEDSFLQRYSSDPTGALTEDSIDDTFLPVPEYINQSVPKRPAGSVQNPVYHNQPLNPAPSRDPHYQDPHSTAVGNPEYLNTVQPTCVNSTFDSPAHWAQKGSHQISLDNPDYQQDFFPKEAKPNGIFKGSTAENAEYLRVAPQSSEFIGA

residual EGFR (L858R) abundance: less than 50%
Structure (SMILES): CCCC(c1ccc(CCC(=O)NCCCN2CCN(CCCNC(=O)c3nn(C(C)C)c4cc(Nc5ccnc(N6CCC(OC)CC6)n5)ncc34)CC2)cc1)N(C)C(=O)/C(C#N)=C/c1nccs1 (stereo not shown) [Example A67, (E)-N-(3-(4-(3-(3-(4-(1-(2-cyano-N-methyl-3-(thiazol-2-yl)acrylamido)butyl)phenyl)propanamido)propyl)piperazin-1-yl)propyl)-1-isopropyl-6-((2-(4-methoxypiperidin-1-yl)pyrimidin-4-yl)amino)-1H-pyrazolo[4,3-c]pyridine-3-carboxamide]
